Data published in patent publication US7238493B2, “Acetylation of pRb by p300 assay method for compounds which modulate this process” (The University Court of the University of Glasgow, priority 2000, dated 2007).
Entries after “also recorded” stand apart in the source; their conditions may differ.

Test system: pRb/MDM2 complex
Experiment: pRb immunoprecipitation and anti-MDM2 immunoblot from TSA-treated T98G cells
Assay type: cell-based
Conditions: TSA 5 μM for 18-20 h, FIG. 4g
Experimental: Conversely, conditions that enhance acetylation would be expected to promote the interaction of pRb with MDM2. To this end, we treated T98G cells with trichostatin A (TSA), which blocks histone deacetylase (HDAC) activity 18 and thereafter assessed the interaction between pRb and MDM2.
For immunoprecipitation of endogenous acetylated pRb, cell pellets collected from SAOS2, U2OS, T98G, A31, and HEK293 cells were lysed in IPH buffer (50 mM Tris pH 8.0, 150 mM NaCl, 0.5% NP-40, protease inhibitor cocktail (Roche), 5mM EDTA, 5 μM TSA (Sigma)). The protein concentration of the extracts was determined by Bradford assay (BioRad). Protein-A-agarose was first incubated with anti-Rb antibody IF8 and C15 for 1-2 h at 4 C. […] Proteins bound to the beads were elute with 3×SDS loading buffer and analysed by Western blotting using appropriated antibodies. […]
Domains in E1A for p300-Dependent Acetylation of pRb and Acetylated pRb Binds to MDM2. • a) In vitro acetylation assay in which Flag-tagged p3001135-2414 (0.3 μg) together with GST-pRb (2 μg) was incubated with either wild-type GST-E1A, GST-Δ36 or GST-pm928 (1 μg) as indicated. The effect of the buffer (track 5) or GST (1 μg; track 1) alone was also assessed. The quantification of the level of p300 autoacetylation (b) and pRb acetylation (c) in the presence of the E1A derivatives is shown. […]

**Q.** Which “interaction between pRb and MDM2 (pRb/MDM2 complex in pRb immunoprecipitate)” value does the source give for CC(/C=C/C(=O)NO)=C\[C@@H](C)C(=O)c1ccc(N(C)C)cc1 [TSA, trichostatin A] here?
**A.** presence of MDM2 in the pRb immunocomplex; also recorded: clearly detectable; also recorded: augments the interaction between pRb and MDM2
